Test [1] addresses T1, human metabotropic glutamate receptor mGluR5 (Homo sapiens, UniProt P41594).
T1 construct: expressed in transfected cells; host or cells: CHO-K1
Briefly: Cytosolic calcium studies with stably transfected cells (CHO-K1). Format: cell-based. As for the experimental part: Functional Assay of mGluR5 Receptors Cytosolic Calcium Studies with Stably Transfected Cells
Chinese hamster ovary cells (CHO-K1 cells), stably transfected for inducible expression of a human metabotropic glutamate receptor mGluR5, are seeded into black clear bottom 96 well plates at a density of 35.000 cells per well. The standard growth medium used (Dulbecco's modified Eagle Medium, DMEM plus L-proline) contains the appropriate inducer isopropyl-β-D-thiogalactopyranosid (IPTG) to achieve optimal receptor expression. One day after seeding the growth medium is exchanged for reconstituted Ca-Kit (Molecular Devices, USA) and incubated for one hour. Ca-Kit is reconstituted in an assay buffer containing 20 mM HEPES pH 7.4, glutamic-pyruvate transaminase, pyridoxal phosphate and sodium pyruvate in Hank's balanced salt solution (HBBS). Agonistic compounds to the receptor elicit increases in cytosolic calcium which can be measured as increases in fluorescence signals by use of a fluorescence imaging plate reader (Molecular Devices). […] Similarly, for the characterization of positive allosteric modulators, a dilution series of the test compound is added online to 384 well plates containing the described dye loaded cells and after a preincubation time of 5 minutes stimulated by a basal cell concentration of the agonist L-glutamate giving about 20% of the maximal signal.
(§1) The fluorescence signal increase after addition of agonist reflects the increase of cytosolic calcium. Inconsistencies in the amount of cells per well are normalised by using the spatial uniformity correction of the FLIPR operating software Screenworks. The mean of replicated temporal data (n=3-5) is calculated and used for graphical representation. For the evaluation of the pharmacology, the calcium changes in response to different concentrations of agonist or antagonist are determined using a maximum minus minimum (MaxMin) calculation.
(§2) All responses (RFU-values) are determined as percentage of control (=maximum response). EC50 and IC50 are calculated according the logistic equation using Prism 4.0 (GraphPad Software, USA).

The next test addresses T2, mGluR5 receptors (Rattus norvegicus, UniProt P31424).
T2 construct: Primary astrocyte cultures are prepared from cortices of newborn rats; endogenous in cells; host or cells: primary rat cortical astrocytes (Sprague-Dawley pups)
Description: Cytosolic calcium studies with cultured rat astrocytes. Format: cell-based. As for the experimental part:
Primary astrocyte cultures are prepared from cortices of newborn rats as described by Booher and Sensenbrenner (1972, Neurobiology 2(3):97-105). Briefly, Sprague-Dawley rat pups (2-4 d old) are decapitated and neocortices are dissected, disintegrated with a nylon filter (pore size 80 μm) and carefully triturated. The cell suspension is plated on poly-D-lysine pre-coated flasks (Costar, Netherlands) and cultivated in Dulbecco's Modified Eagle's Medium (DMEM, Invitrogen, Germany) supplemented with 10% foetal calf serum (FCS, Sigma, Germany), 4 mM glutamine and […] gentamycin (both Biochrom, Germany) at 37° C. in a humidified atmosphere of 5% CO2/95% air for 7 days with exchanging the medium at day 2 and 6.
After 7 days in vitro (DIV), cells are shaken overnight at 250 rpm to remove oligodendrocytes and microglia. The next day, astrocytes are rinsed twice with CMF-PBS (calcium- and magnesium-free phosphate buffered saline, Biochrom, Germany), trypsinized and subplated on poly-D-lysine pre-coated 96-well plates (Greiner, Germany) at a density of 40,000 cells/well. 24 h after establishing the secondary culture the astrocytes are rinsed with PBS″ (phosphate buffered saline, Biochrom, Germany) and fed with astrocyte-defined medium (ADM) consisting of DMEM containing 1× G5-supplement (Invitrogen, Germany), 0.5 μg/ml heparan sulfate, and 1.5 μg/ml fibronectin (both Sigma, Germany) (Miller et al., (1993) Brain Res. 618(1):175-8). 3 days later the medium is exchanged and the cells incubated for another 2-3 days, so that at the time of experiments astrocytes are 14-15 DIV.
The increase of cytosolic calcium after stimulation with the mGluR5 agonist L-quisqualate is measured using a fluorometric imaging plate reader (FLIPR) and the Ca-Kit (both Molecular Devices). Prior to addition of agonist or antagonist the medium is aspirated and cells are loaded for 2 h at RT with 150 μl of loading buffer consisting of Ca-sensitive dye reconstituted in sodium chloride (123 mM), potassium chloride (5.4 mM), magnesium chloride (0.8 mM), calcium chloride (1.8 mM), D-glucose (15 mM), and HEPES (20 mM), pH 7.3. Subsequently, plates are transferred to FLIPR to detect calcium increase with the addition of L-quisqualate (100 nM) measured as relative fluorescence units (RFU). If antagonists are tested, these compounds are pre-incubated for 10 minutes at RT before addition of the respective agonist.
Thereafter, concentration-response curves for the positive modulator are performed in the presence of a fixed concentration of quisqualate showing the biggest window for potentiation (normally 10-30 nM).
as §1, §2

A further test has as its target T3, monoamine oxidase MAO-B (Homo sapiens, UniProt P27338).
T3 construct: host or cells: insect Hi5 cells
T3 sequence (P27338 1-520): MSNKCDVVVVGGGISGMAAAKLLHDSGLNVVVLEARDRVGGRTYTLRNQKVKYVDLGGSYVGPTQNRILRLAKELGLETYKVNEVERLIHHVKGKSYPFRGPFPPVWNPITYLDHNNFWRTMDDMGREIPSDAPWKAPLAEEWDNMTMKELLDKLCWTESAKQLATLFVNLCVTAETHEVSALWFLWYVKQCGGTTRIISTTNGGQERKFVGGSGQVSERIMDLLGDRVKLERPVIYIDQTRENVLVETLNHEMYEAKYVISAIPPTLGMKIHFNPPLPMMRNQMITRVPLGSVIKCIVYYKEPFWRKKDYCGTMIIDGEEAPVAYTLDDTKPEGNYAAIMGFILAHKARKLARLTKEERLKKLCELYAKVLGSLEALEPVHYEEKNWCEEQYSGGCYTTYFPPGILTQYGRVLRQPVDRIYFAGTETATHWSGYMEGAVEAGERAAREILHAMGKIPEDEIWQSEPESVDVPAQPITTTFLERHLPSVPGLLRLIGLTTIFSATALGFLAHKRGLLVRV
Briefly: Inhibition of monoamine oxidase MAO-B. Format: biochemical. Particulars: recombinant human enzyme expressed in insect Hi5 cells, 50 uM kynuramine. The protocol:
The inhibition of the enzyme monoamine oxidase MAO-B is tested with an enzyme from recombinant source, namely of the human enzyme expressed in insect Hi5 cells. Following a pre-incubation of the test compounds with the enzyme for 15 minutes at 37° C. in the incubation buffer (100 mM potassium phosphate, pH 7.4), the enzymatic reaction with 50 uM kynuramine is carried out for 60 minutes. The reaction product 4-hydroxyquinoline is quantified by spectrofluorometry. The compound vehicle used for this assay is 1% DMSO.

The values that follow come from US20120178742A1, “METABOTROPIC GLUTAMATE RECEPTOR MODULATORS” (MERZ PHARMA GmbH & CO. KGaA, priority 2009, published 2012).

The EC50 is the midpoint of the concentration-response curve. The IC50 is the concentration at which inhibition is half-maximal.

T2 sequence (P31424 21-1203): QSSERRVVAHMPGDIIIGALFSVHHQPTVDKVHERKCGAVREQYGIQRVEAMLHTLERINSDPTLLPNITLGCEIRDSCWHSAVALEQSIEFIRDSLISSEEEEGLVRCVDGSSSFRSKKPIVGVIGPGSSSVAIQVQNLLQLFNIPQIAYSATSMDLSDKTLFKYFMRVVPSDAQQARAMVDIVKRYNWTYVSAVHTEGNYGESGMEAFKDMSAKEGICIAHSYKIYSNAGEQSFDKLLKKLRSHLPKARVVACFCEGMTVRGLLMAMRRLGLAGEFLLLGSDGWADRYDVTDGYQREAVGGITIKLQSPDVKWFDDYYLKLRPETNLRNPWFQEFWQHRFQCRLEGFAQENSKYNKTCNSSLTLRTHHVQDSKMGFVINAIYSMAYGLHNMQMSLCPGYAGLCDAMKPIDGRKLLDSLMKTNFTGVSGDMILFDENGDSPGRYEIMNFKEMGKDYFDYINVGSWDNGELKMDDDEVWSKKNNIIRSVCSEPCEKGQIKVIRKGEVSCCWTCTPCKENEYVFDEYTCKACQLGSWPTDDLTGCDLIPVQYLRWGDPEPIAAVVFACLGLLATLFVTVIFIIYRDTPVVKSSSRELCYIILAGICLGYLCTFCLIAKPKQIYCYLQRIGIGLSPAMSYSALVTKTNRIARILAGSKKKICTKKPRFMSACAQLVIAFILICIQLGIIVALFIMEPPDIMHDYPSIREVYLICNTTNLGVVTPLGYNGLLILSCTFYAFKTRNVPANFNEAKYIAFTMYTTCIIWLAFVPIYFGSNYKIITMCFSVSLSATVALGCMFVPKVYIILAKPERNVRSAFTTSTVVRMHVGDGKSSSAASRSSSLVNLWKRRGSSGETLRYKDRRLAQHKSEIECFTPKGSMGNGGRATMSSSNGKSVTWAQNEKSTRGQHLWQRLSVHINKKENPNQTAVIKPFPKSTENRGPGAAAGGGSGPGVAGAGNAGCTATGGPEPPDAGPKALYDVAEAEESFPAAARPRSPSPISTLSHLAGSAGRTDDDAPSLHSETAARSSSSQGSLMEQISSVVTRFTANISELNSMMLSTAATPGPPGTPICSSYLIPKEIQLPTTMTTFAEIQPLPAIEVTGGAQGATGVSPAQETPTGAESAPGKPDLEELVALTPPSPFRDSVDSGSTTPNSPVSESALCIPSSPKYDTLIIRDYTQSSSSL
T1 sequence (P41594 21-1212): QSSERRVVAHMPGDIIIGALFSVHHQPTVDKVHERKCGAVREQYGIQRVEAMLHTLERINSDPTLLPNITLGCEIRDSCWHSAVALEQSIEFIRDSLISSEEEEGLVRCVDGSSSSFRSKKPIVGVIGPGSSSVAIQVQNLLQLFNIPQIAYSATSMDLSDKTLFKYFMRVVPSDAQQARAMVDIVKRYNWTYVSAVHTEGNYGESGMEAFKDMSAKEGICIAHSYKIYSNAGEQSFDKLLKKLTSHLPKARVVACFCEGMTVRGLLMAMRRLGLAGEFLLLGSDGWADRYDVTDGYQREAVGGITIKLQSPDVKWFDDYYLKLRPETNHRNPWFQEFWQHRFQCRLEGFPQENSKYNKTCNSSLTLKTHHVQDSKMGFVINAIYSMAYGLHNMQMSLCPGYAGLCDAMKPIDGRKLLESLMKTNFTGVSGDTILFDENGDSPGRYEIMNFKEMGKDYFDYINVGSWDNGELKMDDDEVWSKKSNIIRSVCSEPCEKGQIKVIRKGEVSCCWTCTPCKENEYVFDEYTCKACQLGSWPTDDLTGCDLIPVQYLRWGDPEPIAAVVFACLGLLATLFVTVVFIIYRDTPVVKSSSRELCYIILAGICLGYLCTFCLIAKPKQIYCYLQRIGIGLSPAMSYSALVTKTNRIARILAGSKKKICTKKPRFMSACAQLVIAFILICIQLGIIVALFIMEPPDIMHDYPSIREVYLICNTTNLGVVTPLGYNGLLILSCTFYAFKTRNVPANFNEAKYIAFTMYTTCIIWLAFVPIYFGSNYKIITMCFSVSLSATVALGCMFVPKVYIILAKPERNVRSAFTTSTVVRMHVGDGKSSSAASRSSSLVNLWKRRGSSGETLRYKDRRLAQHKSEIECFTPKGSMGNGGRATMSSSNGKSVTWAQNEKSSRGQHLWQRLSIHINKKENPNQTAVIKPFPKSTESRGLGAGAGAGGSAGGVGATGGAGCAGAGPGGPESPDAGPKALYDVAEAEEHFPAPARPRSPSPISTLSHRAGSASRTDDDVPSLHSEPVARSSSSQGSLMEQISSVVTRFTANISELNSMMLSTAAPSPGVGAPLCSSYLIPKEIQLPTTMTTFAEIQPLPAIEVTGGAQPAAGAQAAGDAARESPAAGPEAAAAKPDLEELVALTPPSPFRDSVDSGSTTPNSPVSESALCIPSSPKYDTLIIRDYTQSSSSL

On to `Fc1cccc(C#Cc2cnc3nccnc3c2)c1` [Example 60, 7-(3-Fluoro-phenylethynyl)-pyrido[2,3-b]pyrazine], for which the results for the 50% effective concentration (EC50) (in test [1]; on mGluR5 receptors) were 100 nM and 54 nM, respectively. Also, the IC50 at monoamine oxidase MAO-B is 89 nM.
`C(#Cc1cnc2nc(N3CCCCC3)sc2c1)c1ccccc1` [Example 81, 6-Phenylethynyl-2-piperidin-1-yl-thiazolo[4,5-b]pyridine]: the EC50 in test [1] came out at 91 nM. In addition, the IC50 at monoamine oxidase MAO-B was determined as 520 nM.
In the case of `Fc1ccccc1C#Cc1cnc2nccnc2c1` [Example 61, 7-(2-Fluoro-phenylethynyl)-pyrido[2,3-b]pyrazine], the 50% effective concentration (EC50) in test [1] was 300 nM; at mGluR5 receptors, 190 nM. In addition, the IC50 at monoamine oxidase MAO-B amounted to 37 nM.
In the same order, the values of `Fc1ccc(C#Cc2cnc3ncsc3c2)cc1` [Example 46, 6-(4-Fluoro-phenylethynyl)-thiazolo[4,5-b]pyridine] are 58 nM, 91 nM and 540 nM.
